Assay results taken from ChEMBL document CHEMBL1147258, “Cytochalasins Z4, Z5, and Z6, three new 24-Oxa[14]cytochalasans produced by Phoma exigua var. heteromorpha” (J Nat Prod, 2003).
The source made the active and inactive calls. The rule behind the calls is not given here.

Assays:
Solanum lycopersicum = test: Herbicidal activity against tomato seedlings assessed as inhibition of rootlet elongation at 100 uM; type: functional
[1] = (§1) Toxicity in brine shrimp assessed as mortality of larvae at 100 uM; type: organism-based; details: artemia, in vivo; read-out: Activity
Artemia = test: as §1; type: organism-based; details: in vivo, 100 µM

Structure (SMILES)	Activity (Solanum lycopersicum)	mortality at 100 µM [1] [%]	Activity (Artemia)	inhibition at 100 µM (Solanum lycopersicum) [%]
C=C1[C@@H](C)[C@H]2[C@H](Cc3ccc(O)cc3)NC(=O)[C@]23OC(=O)/C=C/[C@H](O)CCC[C@@H](C)C/C=C/[C@H]3[C@@H]1O [CYTOCHALASIN Z5]	inactive	21	–	–
C=C1[C@@H](C)[C@H]2[C@H](Cc3ccccc3O)NC(=O)[C@]23OC(=O)/C=C/[C@H](O)CCC[C@@H](C)C/C=C/[C@H]3[C@@H]1O [CYTOCHALASIN Z4]	inactive	–	Non-toxic	–
C[C@H]1C/C=C/[C@H]2[C@@H]3O[C@]3(C)[C@@H](C)[C@H]3[C@H](Cc4ccccc4)NC(=O)[C@]32OC(=O)/C=C/CC(O)CC1 (stereo partly specified) [CYTOCHALASIN Z6]	–	–	Non-toxic	30
